1 substance from patent US4879114A, “Lipids from omentum and methods for cosmetic use” (Angio-Medical Corporation, priority 1985, dated 1989) can be followed below.

The test system of this data set is skin (back) of subjects. To be noted: in vivo.

As for petrolatum, the “challenge patch reading: dermal contact irritation or sensitization” value is “negative at each reading without any evidence of dermal contact irritation or sensitization” and the “induction phase patch reading” value was “negative at each reading”.
